“Also recorded” adds a separate entry of the source. Where two headings read alike, the source gives them in different places.
What was measured:
[1] = system: HT-29 human colonic adenocarcinoma cells; test: HT-29 tumor formation in athymic mice; assay type: in vivo; details: local treatment s.c. 40 μg/day, 6×/week
Procedure: Mice were examined 2×/week for palpable tumors. Treatment doses: 40 μg/day (A and C); 8 μg/day (B). n=8 for all groups except the vehicle controls in A and B, where n=12.

[2] = system: PC-3 human prostate tumor cells; test: PC-3 tumor formation in athymic mice; assay type: in vivo
Procedure: Compound NCI-65828 was identified by HTS as an ANG inhibitor. […] Each compound was administered 6 times per week, in doses of 40 μg, 8 μg, and 1.6 μg (about 2, 0.4 and 0.08 mg/kg/day). The compound was dissolved in DMSO, and control mice received a corresponding volume of DMSO (4%, 0.8% and 0%). Another control group received saline.
Another in vivo mouse experiment was performed using 8 or 12 mice per group. The experimental group was administered PC-3 cells and NCI-65828, as intraperitoneal injections (40 μg and 8 μg). A control group of mice was administered PC-3 cells and a related compound that was known to be ineffective at inhibiting ANG enzymatic activity. Mice were evaluated for number of animals that remained tumor free as a function of time, at intervals of 3 days from days 14-42 following the initial injection.
Concentrated stocks of inhibitors were prepared in dimethylsulfoxide (DMSO), and the inhibitors were diluted into phosphate-buffered saline (PBS); the final DMSO concentration for the 40 μg and 20 μg doses was 4% in PBS, and that for the 8 μg and 4 μg doses was 0.8% in PBS. Statistical significance (P values) was determined from Mantel-Cox tests performed on Kaplan-Meier survivor functions. Results for inhibitor-treated groups were compared to results obtained with the appropriate DMSO control groups. A positive control group of mice, administered antisense DNA specific for the ANG gene in PBS (no DMSO), was also included. ANG antisense DNA was shown previously to be extremely effective in this tumor model.
Tumor cells from a human prostate cancer (PC-3) were injected subcutaneously (s.c.) in the shoulder of 6-7 week old athymic (nude) mice on day 0. Treatment with the indicated amount of inhibitor (in 100 μL) was given subcutaneously in the same area as the cells, 6 times per week, with the first injection 5-10 minutes prior to injection of the cells. The total dosage was 0.4 mg to 2 mg per kg per day.

angiogenin (ANG) = angiogenin (ANG) (Homo sapiens, UniProt P03950); test: Inhibition of ANG ribonucleolytic activity, HPLC assay of oligonucleotide cleavage; assay type: biochemical; details: 20 mM Hepes, 100 mM NaCl
Procedure: Reaction mixtures with and without test compounds were chromatographed on a Mono Q anion-exchange column with an NaCl gradient in 10 mM Tris, pH 8. […] This information was used to calculate kcat/Km values, which were then fitted to the equation (kcat/Km)i=(kcat/Km)0/[…], where (kcat/Km)i and (kcat/Km)0 are defined as the values in the presence and absence of inhibitor, respectively, and [I] is defined as the inhibitor concentration. At least four concentrations (in a range of about 10 μM-above 100 μM) were used in the final hit confirmation in order to distinguish all true hits.
Chemical structures of selected compounds are shown in these Tables and in FIGS. 4 and 5.

[3] = PC-3 s.c., 8 μg s.c. 6 times per week
[4] = PC-3 s.c., 40 μg s.c. 6 times per week

Sequence of angiogenin (ANG) (P03950 25-147): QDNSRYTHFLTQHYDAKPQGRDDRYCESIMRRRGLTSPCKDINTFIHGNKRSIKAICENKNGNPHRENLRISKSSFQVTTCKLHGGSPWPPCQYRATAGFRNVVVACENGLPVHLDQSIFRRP

## Nc1ccc(/N=N/c2ccc(-c3ccc(O)cc3)cc2)c2ccc(S(=O)(=O)O)cc12 [NCI-65828, 8-amino-5-(4′-hydroxybiphenyl-4-ylazo)naphthalene-2-sulfonate]
[1]
  Formation of tumors (FIG. 1C): delay or prevention; also recorded: significantly delayed the formation of tumors
[2]; PC-3, 40 μg and 8 μg, days 14-42, vs controls
  Appearance of tumors (FIGS. 1A and 1B): delay or prevention; also recorded: delayed the appearance of tumors
[2]; PC-3, s.c. 6 times per week, doses of 40 μg, 8 μg and 1.6 μg, vs control groups
  Rate of tumor development (preliminary test): developed tumors at a slower rate
[2]; [3]
  Percentage of Tumor-Bearing Mice, day 14: 0%
  Percentage of Tumor-Bearing Mice, day 17: 38%
  Percentage of Tumor-Bearing Mice, day 21: 50%
  Percentage of Tumor-Bearing Mice, day 24: 100%
  Percentage of Tumor-Bearing Mice, day 32: 100%
  Percentage of Tumor-Bearing Mice, day 35: 100%
[2]; [4]
  Percentage of Tumor-Bearing Mice, day 14: 0%
  Percentage of Tumor-Bearing Mice, day 17: 25%
  Percentage of Tumor-Bearing Mice, day 21: 50%
  Percentage of Tumor-Bearing Mice, day 24: 100%
  Percentage of Tumor-Bearing Mice, day 32: 100%
  Percentage of Tumor-Bearing Mice, day 35: 100%
[2]; PC-3 s.c., treatment s.c. 6 times per week
  Time of appearance of tumors (Example 3, Table 1): delayed considerably the time of appearance of tumors
Angiogenin (ANG); pH 7.0, 37° C., read-out: Ki for inhibition of the ribonucleolytic activity of angiogenin
  Ki: 81 µM
Angiogenin (ANG); inhibition of ANG-catalyzed cleavage of an RNA oligonucleotide, 37° C., read-out: KI
  Ki: 81 µM
